Experimental data published in PubChem BioAssay (NCI).
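Cultured in 96-well plates, cells were exposed to test compound for 48 hours across five concentrations. At the TGI there is no net growth.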

How the values were obtained:
Test in all cases: NCI tumour cell line growth inhibition, 48 h
ACHN renal = test system: ACHN renal
NCI-H522 lung = test system: NCI-H522 lung
SK-MEL-5 melanoma = test system: SK-MEL-5 melanoma
U251 CNS = test system: U251 CNS
HOP-62 NSCLC = test system: HOP-62 NSCLC
SW-620 colon = test system: SW-620 colon
SN12C renal = test system: SN12C renal
CAKI-1 renal = test system: CAKI-1 renal
UACC-257 melanoma = test system: UACC-257 melanoma
SK-OV-3 ovarian = test system: SK-OV-3 ovarian
SF-295 CNS = test system: SF-295 CNS
HL-60(TB) leukemia = test system: HL-60(TB) leukemia
OVCAR-3 ovarian = test system: OVCAR-3 ovarian
A549 NSCLC = test system: A549 NSCLC
NCI-H460 lung = test system: NCI-H460 lung
SR leukemia = test system: SR leukemia
HCT-116 colon = test system: HCT-116 colon
HT29 colon = test system: HT29 colon
DU-145 prostate = test system: DU-145 prostate
CCRF-CEM leukemia = test system: CCRF-CEM leukemia
COLO 205 colon = test system: COLO 205 colon
M14 melanoma = test system: M14 melanoma
NCI-H23 lung = test system: NCI-H23 lung
SNB-75 CNS = test system: SNB-75 CNS
MDA-MB-435 = test system: MDA-MB-435
UO-31 renal = test system: UO-31 renal
MDA-MB-231 breast = test system: MDA-MB-231 breast
HCT-15 colon = test system: HCT-15 colon
A498 renal = test system: A498 renal
MCF7 breast = test system: MCF7 breast
MOLT-4 leukemia = test system: MOLT-4 leukemia
SF-268 CNS = test system: SF-268 CNS
OVCAR-8 ovarian = test system: OVCAR-8 ovarian
786-0 renal = test system: 786-0 renal
HS 578T breast = test system: HS 578T breast
TK-10 renal = test system: TK-10 renal
RXF 393 renal = test system: RXF 393 renal
LOX IMVI melanoma = test system: LOX IMVI melanoma
NCI/ADR-RES ovarian = test system: NCI/ADR-RES ovarian
IGROV1 ovarian = test system: IGROV1 ovarian
OVCAR-5 ovarian = test system: OVCAR-5 ovarian
SF-539 CNS = test system: SF-539 CNS
HOP-92 NSCLC = test system: HOP-92 NSCLC
MDA-N = test system: MDA-N
RPMI-8226 leukemia = test system: RPMI-8226 leukemia
T-47D breast = test system: T-47D breast
KM12 colon = test system: KM12 colon
HCC-2998 colon = test system: HCC-2998 colon
EKVX NSCLC = test system: EKVX NSCLC
UACC-62 melanoma = test system: UACC-62 melanoma
NCI-H226 lung = test system: NCI-H226 lung
BT-549 breast = test system: BT-549 breast
OVCAR-4 ovarian = test system: OVCAR-4 ovarian
SK-MEL-2 melanoma = test system: SK-MEL-2 melanoma
K-562 leukemia = test system: K-562 leukemia
PC-3 prostate = test system: PC-3 prostate
SK-MEL-28 melanoma = test system: SK-MEL-28 melanoma
SNB-19 CNS = test system: SNB-19 CNS
MALME-3M melanoma = test system: MALME-3M melanoma

## CCOC(=O)[C@@H]1ON2O[C@@H](OC3CCCC3(c3ccccc3)c3ccccc3)C[C@H]3OC(=O)[C@@H]1C32 (stereo partly specified)
ACHN renal
  TGI: 37 µM
NCI-H522 lung
  TGI: 91.9 µM
SK-MEL-5 melanoma
  TGI: > 100 µM
U251 CNS
  TGI: > 100 µM
HOP-62 NSCLC
  TGI: > 100 µM
SW-620 colon
  TGI: 64.5 µM
SN12C renal
  TGI: 80.3 µM
CAKI-1 renal
  TGI: 31.6 µM
UACC-257 melanoma
  TGI: 50.6 µM
SK-OV-3 ovarian
  TGI: > 100 µM
SF-295 CNS
  TGI: > 100 µM
HL-60(TB) leukemia
  TGI: 60.9 µM
OVCAR-3 ovarian
  TGI: 54.1 µM
A549 NSCLC
  TGI: 57.4 µM
NCI-H460 lung
  TGI: > 100 µM
SR leukemia
  TGI: 61.4 µM
HCT-116 colon
  TGI: > 100 µM
HT29 colon
  TGI: 43.1 µM
DU-145 prostate
  TGI: 55.6 µM
CCRF-CEM leukemia
  TGI: 64.8 µM
COLO 205 colon
  TGI: > 100 µM
M14 melanoma
  TGI: 51.9 µM
NCI-H23 lung
  TGI: 37.2 µM
SNB-75 CNS
  TGI: > 100 µM
MDA-MB-435
  TGI: 34.2 µM
UO-31 renal
  TGI: 41.1 µM
MDA-MB-231 breast
  TGI: 49 µM
HCT-15 colon
  TGI: 60.7 µM
A498 renal
  TGI: > 100 µM
MCF7 breast
  TGI: 52.1 µM
MOLT-4 leukemia
  TGI: > 100 µM
SF-268 CNS
  TGI: 70.2 µM
OVCAR-8 ovarian
  TGI: > 100 µM
786-0 renal
  TGI: 79 µM
HS 578T breast
  TGI: > 100 µM
TK-10 renal
  TGI: 43.6 µM
RXF 393 renal
  TGI: 48.2 µM
LOX IMVI melanoma
  TGI: > 100 µM
NCI/ADR-RES ovarian
  TGI: > 100 µM
IGROV1 ovarian
  TGI: > 100 µM
OVCAR-5 ovarian
  TGI: 78.4 µM
SF-539 CNS
  TGI: 68 µM
HOP-92 NSCLC
  TGI: > 100 µM
MDA-N
  TGI: 67.6 µM
RPMI-8226 leukemia
  TGI: 90.6 µM
T-47D breast
  TGI: 69.1 µM
KM12 colon
  TGI: 29 µM
HCC-2998 colon
  TGI: > 100 µM
EKVX NSCLC
  TGI: > 100 µM
UACC-62 melanoma
  TGI: 42.2 µM
NCI-H226 lung
  TGI: > 100 µM

## COC(=O)[C@H](C)NC(=O)[C@H](CSC)N1C(=O)N[C@@H](C(C)C)C1=O
ACHN renal
  TGI: > 100 µM
BT-549 breast
  TGI: > 100 µM
NCI-H522 lung
  TGI: > 100 µM
SK-MEL-5 melanoma
  TGI: > 100 µM
U251 CNS
  TGI: > 100 µM
HOP-62 NSCLC
  TGI: > 100 µM
SW-620 colon
  TGI: > 100 µM
SN12C renal
  TGI: > 100 µM
CAKI-1 renal
  TGI: > 100 µM
UACC-257 melanoma
  TGI: > 100 µM
SK-OV-3 ovarian
  TGI: > 100 µM
SF-295 CNS
  TGI: > 100 µM
OVCAR-4 ovarian
  TGI: > 100 µM
OVCAR-3 ovarian
  TGI: > 100 µM
A549 NSCLC
  TGI: > 100 µM
SK-MEL-2 melanoma
  TGI: > 100 µM
NCI-H460 lung
  TGI: > 100 µM
SR leukemia
  TGI: > 100 µM
HCT-116 colon
  TGI: > 100 µM
HT29 colon
  TGI: > 100 µM
DU-145 prostate
  TGI: > 100 µM
CCRF-CEM leukemia
  TGI: > 100 µM
COLO 205 colon
  TGI: > 100 µM
M14 melanoma
  TGI: > 100 µM
NCI-H23 lung
  TGI: > 100 µM
SNB-75 CNS
  TGI: > 100 µM
MDA-MB-435
  TGI: > 100 µM
UO-31 renal
  TGI: > 100 µM
K-562 leukemia
  TGI: > 100 µM
MDA-MB-231 breast
  TGI: > 100 µM
HCT-15 colon
  TGI: > 100 µM
MCF7 breast
  TGI: > 100 µM
MOLT-4 leukemia
  TGI: > 100 µM
PC-3 prostate
  TGI: > 100 µM
OVCAR-8 ovarian
  TGI: > 100 µM
SK-MEL-28 melanoma
  TGI: > 100 µM
786-0 renal
  TGI: > 100 µM
TK-10 renal
  TGI: > 100 µM
RXF 393 renal
  TGI: > 100 µM
LOX IMVI melanoma
  TGI: > 100 µM
NCI/ADR-RES ovarian
  TGI: > 100 µM
IGROV1 ovarian
  TGI: > 100 µM
OVCAR-5 ovarian
  TGI: > 100 µM
SNB-19 CNS
  TGI: > 100 µM
SF-539 CNS
  TGI: > 100 µM
HOP-92 NSCLC
  TGI: > 100 µM
MDA-N
  TGI: > 100 µM
RPMI-8226 leukemia
  TGI: > 100 µM
T-47D breast
  TGI: > 100 µM
KM12 colon
  TGI: > 100 µM
HCC-2998 colon
  TGI: > 100 µM
EKVX NSCLC
  TGI: > 100 µM
UACC-62 melanoma
  TGI: > 100 µM
MALME-3M melanoma
  TGI: > 100 µM
NCI-H226 lung
  TGI: > 100 µM
